The results in this text go back to patent publication US12187709B2 (Genentech, Inc., priority 2021, dated 2025).

One experiment has as its target Cbl-b (Homo sapiens (Human), UniProt Q13191). The experiment in a line: Cbl-b LCK Ub TR-FRET assay (Cbl-b Lck HTRF). The note with it: for IC50: Cbl-b LCK Ub TR-FRET; for fold-selectivity (Cbl-b over C-cbl): ratio C-cbl Lck HTRF IC50 / Cbl-b Lck HTRF IC50. It counts as biochemical. An outline of the steps:
(§1)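 After the ubiquitination reaction, detection mixture was added and plates incubated 20 min at room temperature before reading. IC50 values were calculated with wells lacking LCK as the low control and DMSO as the high control.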
(Time-resolved FRET reads energy transfer from a long-lived donor to a nearby acceptor.)

The target of a further experiment is c-Cbl (Homo sapiens (Human), UniProt P22681). The experiment in a line: C-Cbl LCK Ub TR-FRET assay (C-cbl Lck HTRF). The experiment is classed as biochemical. An outline of the steps:
as §1

The target in experiment [1] is Human Cbl-b (residues 40-426) (Homo sapiens (Human), UniProt Q13191). As to the kind of experiment: Cbl-b SPR assay. The experiment is classed as binding. The conditions noted are these: for Fold of selectivity: C-cbl SPR Kd vs Cbl-b SPR Kd; for Kd: SPR, 20° C. An outline of the steps:
(§2)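 SPR, multi-cycle, 6-pt 2-fold series, blanks flanking for double referencing; capture 1300-1500 RU; contact 60 s at 40 μl/min; dissoc. 120-1200 s (~4-5 half-lives). 1:1 fit. Chaser variant: single cycle, 5 conc., top 500 nM, 120 s contact, 450 s dissociation.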

The next experiment addresses c-Cbl (residues 47-435) (Homo sapiens (Human), UniProt P22681). As to the kind of experiment: c-Cbl SPR assay. The experiment is classed as binding. The conditions noted are these: 20° C. The method in brief: as §2
On the technique in general: Surface plasmon resonance follows binding to a sensor surface in real time, without labels.

Each structure is given as a SMILES string.

One may read the IC50 as the concentration needed to halve the response being measured. Lower therefore signals greater potency in that assay. Broadly, the Kd is the equilibrium constant for the complex coming apart. The low end stands for a tighter complex, the high end for a looser complex.

c-Cbl, sequence (P22681 47-435): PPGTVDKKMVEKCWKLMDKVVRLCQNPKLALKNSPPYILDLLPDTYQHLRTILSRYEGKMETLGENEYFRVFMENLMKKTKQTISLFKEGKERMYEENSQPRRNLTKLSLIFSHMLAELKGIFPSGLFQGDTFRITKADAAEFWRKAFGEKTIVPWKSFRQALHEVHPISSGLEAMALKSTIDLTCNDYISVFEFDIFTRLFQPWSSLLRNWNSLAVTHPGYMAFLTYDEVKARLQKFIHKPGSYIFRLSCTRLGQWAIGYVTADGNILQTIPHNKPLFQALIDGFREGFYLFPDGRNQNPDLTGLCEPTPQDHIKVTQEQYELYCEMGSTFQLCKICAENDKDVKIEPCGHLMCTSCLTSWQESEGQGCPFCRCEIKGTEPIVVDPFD
c-Cbl (residues 47-435), sequence (P22681 47-435): as above
Human Cbl-b (residues 40-426), sequence (Q13191 40-426): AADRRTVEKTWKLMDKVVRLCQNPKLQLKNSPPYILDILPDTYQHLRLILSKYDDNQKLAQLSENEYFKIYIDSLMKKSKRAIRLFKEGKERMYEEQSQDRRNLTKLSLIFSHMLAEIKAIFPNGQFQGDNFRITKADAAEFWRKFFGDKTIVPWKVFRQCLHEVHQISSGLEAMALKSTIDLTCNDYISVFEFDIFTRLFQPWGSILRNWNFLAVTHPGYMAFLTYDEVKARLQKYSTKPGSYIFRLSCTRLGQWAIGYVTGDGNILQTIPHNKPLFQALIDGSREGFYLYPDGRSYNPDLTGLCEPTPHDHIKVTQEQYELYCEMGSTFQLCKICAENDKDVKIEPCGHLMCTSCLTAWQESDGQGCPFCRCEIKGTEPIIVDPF
Cbl-b, sequence (Q13191 40-426): as above

With `CO[C@H]1C[C@](c2cccc(N3Cc4c(cc(CN5CCN(C)C[C@@H]5C(C)C)cc4C(F)(F)F)C3=O)c2)(c2nncn2C)C1` [Compound 180, 6-(((S)-2-isopropyl-4-methylpiperazin-1-yl)methyl)-2-(3-((1r,3S)-3-methoxy-1-(4-methyl-4H-1,2,4-triazol-3-yl)cyclobutyl)phenyl)-4-(trifluoromethyl)isoindolin-1-one], the IC50 on Cbl-b is 18 nM; on c-Cbl, 74 nM. In addition, the “fold-selectivity (Cbl-b over C-cbl)” value at Cbl-b worked out at 3.7x. In experiment [1], this compound showed a Fold of selectivity of 10.2×. Also, the Kd in experiment [1] stood at 3.5 nM; on c-Cbl (residues 47-435), 36 nM.

With `CCOc1cc(N2Cc3c(cc(CNC4(C)CCC4)cc3C(F)(F)F)C2=O)cc([C@]2(c3nncn3C)C[C@@H](C)C2)c1` [Compound 181, 2-(3-ethoxy-5-((1s,3s)-3-methyl-1-(4-methyl-4H-1,2,4-triazol-3-yl)cyclobutyl)phenyl)-6-(((1-methylcyclobutyl)amino)methyl)-4-(trifluoromethyl)isoindolin-1-one], the results for the IC50 against Cbl-b and at c-Cbl were 9.8 nM and 8.3 nM, respectively. On Cbl-b, the “fold-selectivity (Cbl-b over C-cbl)” value was determined as 0.85x. The Fold of selectivity in experiment [1] turned out to be 2.0×. Further, the equilibrium dissociation constant (Kd) was 0.37 nM in experiment [1] and 0.74 nM on c-Cbl (residues 47-435).

For `CCOc1cc(C2(c3nncn3C)CC(F)(F)C2)cc(N2Cc3c(cc(CNC4(C)CCC4)cc3C(F)(F)F)C2=O)n1` [Compound 182, 2-(4-(3,3-difluoro-1-(4-methyl-4H-1,2,4-triazol-3-yl)cyclobutyl)-6-ethoxypyridin-2-yl)-6-(((1-methylcyclobutyl)amino)methyl)-4-(trifluoromethyl)isoindolin-1-one], on Cbl-b, it took 11 nM to reach half-maximal inhibition (IC50) and the “fold-selectivity (Cbl-b over C-cbl)” value amounted to 1.0x. Besides, the IC50 on c-Cbl was determined as 11 nM. In experiment [1], this compound displayed a Fold of selectivity of 2.7× and a Kd of 0.35 nM. For the same compound, the Kd on c-Cbl (residues 47-435) came to 0.85 nM.

In the case of `Cn1cnnc1[C@]1(c2cc(NC3CCCC3)cc(N3Cc4c(cc(CNC5(C)CCC5)cc4C(F)(F)F)C3=O)c2)C[C@@H](C)C1` [Compound 183, 2-(3-(cyclopentylamino)-5-((1r,3r)-3-methyl-1-(4-methyl-4H-1,2,4-triazol-3-yl)cyclobutyl)phenyl)-6-(((1-methylcyclobutyl)amino)methyl)-4-(trifluoromethyl)isoindolin-1-one], at Cbl-b, half-maximal inhibition (IC50) was put at 18 nM and the “fold-selectivity (Cbl-b over C-cbl)” value stood at 3.4x. On c-Cbl, this compound showed an IC50 of 58 nM. Besides, in experiment [1], the Fold of selectivity amounted to 5.8× and the Kd amounted to 3.2 nM. In addition, the Kd at c-Cbl (residues 47-435) was determined as 18 nM.

On to `Cn1cnnc1[C@]1(c2cc(OC3CCCC3)cc(N3Cc4c(cc(CNC5(C)CCC5)cc4C(F)(F)F)C3=O)c2)C[C@H](C)C1` [Compound 186, 2-(3-(cyclopentyloxy)-5-((1s,3s)-3-methyl-1-(4-methyl-4H-1,2,4-triazol-3-yl)cyclobutyl)phenyl)-6-(((1-methylcyclobutyl)amino)methyl)-4-(trifluoromethyl)isoindolin-1-one], for which, at Cbl-b, the IC50 turned out to be 35 nM and the “fold-selectivity (Cbl-b over C-cbl)” value worked out at 2.9x. In addition, the IC50 at c-Cbl came to 100 nM. For the same compound, in experiment [1], the Fold of selectivity came to 5.2× and the Kd turned out to be 13 nM. In addition, the Kd at c-Cbl (residues 47-435) stood at 72 nM.

On to `Cn1cnnc1C1(c2cc(NCCC#N)nc(N3Cc4c(cc(CNC5(C)CCC5)cc4C(F)(F)F)C3=O)c2)CC2(COC2)C1` [Compound 187, 3-((4-(6-(4-methyl-4H-1,2,4-triazol-3-yl)-2-oxaspiro[3.3]heptan-6-yl)-6-(6-(((1-methylcyclobutyl)amino)methyl)-1-oxo-4-(trifluoromethyl)isoindolin-2-yl)pyridin-2-yl)amino)propanenitrile], for which, on Cbl-b, it took 11 nM to reach half-maximal inhibition (IC50) and the “fold-selectivity (Cbl-b over C-cbl)” value was found to be 1.0x. Moreover, 22 nM corresponded to half-maximal inhibition at c-Cbl (IC50). In experiment [1], the Fold of selectivity came to 15× and the dissociation constant Kd stood at 0.95 nM. The compound also registered a Kd at c-Cbl (residues 47-435) of 15 nM.

With `Cn1cnnc1C1(c2cc(NC3CCCC3)nc(N3Cc4c(cc(CNC5(C)CCC5)cc4C(F)(F)F)C3=O)c2)CC2(COC2)C1` [Compound 188, 2-(6-(cyclopentylamino)-4-(6-(4-methyl-4H-1,2,4-triazol-3-yl)-2-oxaspiro[3.3]heptna-6-yl)pyridin-2-yl)-6-(((1-methylcyclobutyl)amino)methyl)-4-(trifluoromethyl)isoindolin-1-one], on Cbl-b, the IC50 is 16 nM and the “fold-selectivity (Cbl-b over C-cbl)” value is 11x. The compound also had an IC50 on c-Cbl of 180 nM. In experiment [1], this compound came in with a Fold of selectivity of 22× and a Kd of 4.7 nM. Moreover, the affinity at c-Cbl (residues 47-435), expressed as Kd, was 100 nM.

On to `CCOc1cc(N2Cc3c(cc(CNC4(C)CCC4)cc3C(F)(F)F)C2=O)cc([C@]2(c3nncn3C)C[C@H](C)C2)c1` [Compound 189, 2-(3-ethoxy-5-((1r,3r)-3-methyl-1-(4-methyl-4H-1,2,4-triazol-3-yl)cyclobutyl)phenyl)-6-(((1-methylcyclobutyl)amino)methyl)-4-(trifluoromethyl)isoindolin-1-one], for which, on Cbl-b, the IC50 amounted to 7.2 nM and the “fold-selectivity (Cbl-b over C-cbl)” value turned out to be 0.56x. For the same compound, half-maximal inhibition at c-Cbl (IC50) required 4.1 nM. Also, in experiment [1], the Fold of selectivity is listed as 3.3× and binding was put at a Kd of 0.3 nM. For the same compound, on c-Cbl (residues 47-435), the Kd worked out at 1 nM.

`CO[C@H]1C[C@@](c2cccc(N3Cc4c(cccc4C(F)(F)F)C3=O)c2)(c2nncn2C)C1` [Compound 190, 2-(3-((1s,3s)-3-methoxy-1-(4-methyl-4H-1,2,4-triazol-3-yl)cyclobutyl)phenyl)-4-(trifluoromethyl)isoindolin-1-one]: the figures for the IC50 against Cbl-b and on c-Cbl were 7800 nM and 16000 nM, respectively. For the same compound, the “fold-selectivity (Cbl-b over C-cbl)” value at Cbl-b turned out to be 2.0x. Moreover, the Fold of selectivity in experiment [1] worked out at 2.2×. Further, the Kd stood at 5200 nM in experiment [1] and 11000 nM on c-Cbl (residues 47-435).

As to `C[C@H](CC#N)Nc1cc(C2(c3nncn3C)CC3(COC3)C2)cc(N2Cc3c(cc(CNC4(C)CCC4)cc3C(F)(F)F)C2=O)n1` [Compound 192, (R)-3-((4-(6-(4-methyl-4H-1,2,4-triazol-3-yl)-2-oxaspiro[3.3]heptan-6-yl)-6-(6-(((1-methylcyclobutyl)amino)methyl)-1-oxo-4-(trifluoromethyl)isonidolin-2-yl)pyridin-2-yl)amino)butanenitrile], at Cbl-b, the IC50 worked out at 13 nM and the “fold-selectivity (Cbl-b over C-cbl)” value is reported as 0.7x. For the same compound, half-maximal inhibition against c-Cbl (IC50) required 9.2 nM. Moreover, in experiment [1], the Fold of selectivity worked out at 5.7× and the Kd is 0.3 nM. In addition, on c-Cbl (residues 47-435), binding was put at a Kd of 1.7 nM.

On to `Cn1cnnc1C1(c2cc(OC3CCCC3)nc(N3Cc4c(cc(CNC5(C)CCC5)cc4C(F)(F)F)C3=O)c2)CC2(COC2)C1` [Compound 193], for which the figures for the IC50 at Cbl-b and on c-Cbl were 36 nM and 420 nM, respectively. Further, the “fold-selectivity (Cbl-b over C-cbl)” value at Cbl-b came to 11x. Further, the Fold of selectivity in experiment [1] was found to be 27×. Further, the results for the Kd (in experiment [1]; at c-Cbl (residues 47-435)) were 12 nM and 320 nM, respectively.

Consider `C[C@@H](CC#N)Nc1cc(C2(c3nncn3C)CC3(COC3)C2)cc(N2Cc3c(cc(CNC4(C)CCC4)cc3C(F)(F)F)C2=O)n1` [Compound 194, (S)-3-((4-(6-(4-methyl-4H-1,2,4-triazol-3-yl)-2-oxaspiro[3.3]heptan-6-yl)-6-(6-(((1-methylcyclobutyl)amino)methyl)-1-oxo-4-(trifluoromethyl)isoindolin-2-yl)pyridin-2-yl)amino)butanenitrile], for which, on Cbl-b, the IC50 was found to be 13 nM and the “fold-selectivity (Cbl-b over C-cbl)” value came out at 2.5x. Moreover, on c-Cbl, the IC50 was 34 nM. In addition, in experiment [1], the Fold of selectivity is reported as 8.3× and binding was put at a Kd of 1.9 nM. In addition, on c-Cbl (residues 47-435), the Kd was determined as 16 nM.

In the case of `Cn1cnnc1[C@]1(c2cc(OC3CCCC3)cc(N3Cc4c(cc(CNC5(C)CCC5)cc4C(F)(F)F)C3=O)c2)C[C@@H](C)C1` [Compound 195, 2-(3-(cyclopentyloxy)-5-((1r,3r)-3-methyl-1-(4-methyl-4H-1,2,4-triazol-3-yl)cyclobutyl)phenyl)-6-(((1-methylcyclobutyl)amino)methyl)-4-(trifluoromethyl)isoindolin-1-one], on Cbl-b, half-maximal inhibition (IC50) required 36 nM and the “fold-selectivity (Cbl-b over C-cbl)” value is 2.4x. The compound further returned an IC50 against c-Cbl of 84 nM. In experiment [1], this compound showed a Fold of selectivity of 7.6× and a Kd of 15 nM. In addition, the Kd at c-Cbl (residues 47-435) came to 110 nM.

For `CO[C@H]1C[C@](c2cccc(N3Cc4c(cccc4C(F)(F)F)C3=O)c2)(c2nncn2C)C1` [Compound 196, 2-(3-((1r,3r)-3-methoxy-1-(4-methyl-4H-1,2,4-triazol-3-yl)cyclobutyl)phenyl)-4-(trifluoromethyl)isoindolin-1-one], at Cbl-b, inhibition was half-maximal at 1500 nM (IC50) and the “fold-selectivity (Cbl-b over C-cbl)” value is given as 5.6x. This compound also returned an IC50 at c-Cbl of 8300 nM. In addition, in experiment [1], the Fold of selectivity was 5.5× and binding was characterised by a dissociation constant (Kd) of 1800 nM. The same compound had a Kd on c-Cbl (residues 47-435) of 9900 nM.

For `Cn1cnnc1C1(c2cccc(N3Cc4c(cc(CNC5(C)CCC5)cc4C(F)F)C3=O)c2)CC2(COC2)C1` [Compound 197, 4-(difluoromethyl)-2-(3-(6-(4-methyl-4H-1,2,4-triazol-3-yl)-2-oxaspiro[3.3]heptan-6-yl)phenyl)-6-(((1-methylcyclobutyl)amino)methyl)isoindolin-1-one], the IC50 worked out at 37 nM against Cbl-b and 160 nM against c-Cbl. Also, the “fold-selectivity (Cbl-b over C-cbl)” value at Cbl-b is 4.5x. The compound further registered a Fold of selectivity in experiment [1] of 9.2×. Moreover, the Kd in experiment [1] came out at 12 nM; on c-Cbl (residues 47-435), 110 nM.
